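These data come from cells grown in 96-well plates and exposed to compound for 48 hours at five concentrations. GI50 is the concentration that inhibits growth by half. TGI: concentration producing complete growth inhibition.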
Assays:
Assay in all cases: DTP human tumour cell line panel, 48 h
HCT-116 colon = system: HCT-116 colon
HCT-15 colon = system: HCT-15 colon
IGROV1 ovarian = system: IGROV1 ovarian
MALME-3M melanoma = system: MALME-3M melanoma
OVCAR-3 ovarian = system: OVCAR-3 ovarian
SF-539 CNS = system: SF-539 CNS
SK-MEL-5 melanoma = system: SK-MEL-5 melanoma
SN12C renal = system: SN12C renal
TK-10 renal = system: TK-10 renal
T-47D breast = system: T-47D breast

Row | SMILES | TGI (HCT-116 colon) [µM] | TGI (HCT-15 colon) [µM] | TGI (IGROV1 ovarian) [µM] | TGI (MALME-3M melanoma) [µM] | TGI (OVCAR-3 ovarian) [µM] | TGI (SF-539 CNS) [µM] | TGI (SK-MEL-5 melanoma) [µM] | TGI (SN12C renal) [µM] | TGI (TK-10 renal) [µM] | GI50 (HCT-116 colon) [µM] | GI50 (HCT-15 colon) [µM] | GI50 (IGROV1 ovarian) [µM] | GI50 (OVCAR-3 ovarian) [µM] | GI50 (SF-539 CNS) [µM] | GI50 (SK-MEL-5 melanoma) [µM] | GI50 (SN12C renal) [µM] | GI50 (T-47D breast) [µM] | TGI (T-47D breast) [µM] | GI50 (TK-10 renal) [µM] | GI50 (MALME-3M melanoma) [µM]
1 | COC(=O)c1s/c(=N\C(=S)N(C)C)n(-c2ccc(Cl)cc2)c1C(=O)OC | > 100 | > 100 | > 10 | > 100 | > 100 | > 100 | > 10 | > 100 | > 100 |  |  |  |  |  |  |  |  |  |  | 
2 | C[Si](C)(C)/C(Br)=C\CCN1C(=O)CCC1=O | > 100 | > 100 | > 100 | > 100 | > 100 | > 100 | > 100 | > 100 | > 100 |  |  |  |  |  |  |  |  |  |  | 
3 | CC(=O)N1CCC(=O)/C(=C/c2ccccc2)C1 | 32.2 | 48.2 | 46.4 | > 100 | 93.5 | > 100 | > 100 | 37.6 | > 100 |  |  |  |  |  |  |  |  |  |  | 
4 | C=CCN1CCC23c4c5ccc(O)c4OC2C(=NN=C2CCC4(O)C6Cc7ccc(O)c8c7C4(CCN6CC=C)C2O8)CCC3(O)C1C5 (stereo unspecified) |  | > 100 | > 100 | 33.4 | 34.5 | 33.1 | 36.3 | 47.8 | 43.7 |  |  |  |  |  |  |  |  |  |  | 
5 | [N-]=[N+]=N/C1=C/CCCCC(=O)C1 |  | > 100 | > 100 | > 100 |  |  | > 100 | > 100 | > 100 |  |  |  |  |  |  |  |  |  |  | 
6 | C[C@]12CCC(=O)C=C1CC[C@@H]1C2CC[C@]2(C)Nc3[nH]ncc3CC12 (stereo partly specified) | > 100 | > 100 | > 100 | > 100 | > 100 | > 100 | > 100 |  | > 100 |  |  |  |  |  |  |  |  |  |  | 
7 | COC12OCCN(C)C1=CC(=O)C1=NNC(C)C12 (stereo unspecified) | > 100 | > 100 | > 100 |  | > 100 | > 100 | > 100 | > 100 | > 100 |  |  |  |  |  |  |  |  |  |  | 
8 | CCN(CC)CCSc1c2ccccc2nc2c(OC)ccc(OC)c12 | 17.7 |  | 51.4 | > 60.9 |  | > 33.9 | 16.5 | > 39.3 | 17.3 |  |  |  |  |  |  |  |  |  |  | 
9 | COC(=O)C1=C(C(=O)OC)C2=S(SC3=C2CCCC3)S1 (stereo unspecified) |  | 46.6 | > 100 | 71.1 | 40.1 | 74 | 4.71 | > 100 | > 100 |  |  |  |  |  |  |  |  |  |  | 
10 | CS/C(=C(\S)c1ccccc1)c1ccccc1 | > 100 | > 100 | > 100 | > 100 | > 100 | > 100 | > 100 | > 100 | > 100 |  |  |  |  |  |  |  |  |  |  | 
11 | CCOC(=O)c1ccc(N=Nc2cc(C(=O)OCC)ccc2O)cc1 | > 100 | > 100 | > 100 |  |  | > 100 | > 100 | > 100 | > 100 |  |  |  |  |  |  |  |  |  |  | 
12 | O=C1CCC(=O)c2c1c(O)c1ccncc1c2O | 27.9 | 26.3 | 31.6 | 29.4 | 7.24 | 29 | 23.5 | 31.6 | 33 |  |  |  |  |  |  |  |  |  |  | 
13 | Cc1cc(N(CCCNc2ccnc3cc(Cl)ccc23)Cc2ccc3c(c2)OCO3)nc(N2CCOCC2)n1 | 0.882 | 11.7 | 3.47 |  | 1.92 | 0.66 | 0.309 | 14.4 |  | 0.245 | 0.311 | 0.338 | 0.359 | 0.251 | 0.169 | 0.292 | 0.323 | 0.998 |  | 
14 | CC(C)(C)[Si](C)(C)OC1C(=O)C[C@H]2CCCC[C@@H]12 (stereo partly specified) | > 100 | > 100 | > 100 | > 100 | > 100 | > 100 | > 100 | > 100 | > 100 |  |  |  |  |  |  |  |  |  |  | 
15 | CCCCCCCN=C(N)c1ccc(N2CCN(c3ccc(C(N)=NCCCCCCC)cc3)CC2)cc1 | > 72.1 | > 61.9 |  |  | 0.517 |  | 0.0141 | 14.7 | 1.93 |  | 0.45 |  | 0.162 |  |  | 1.08 |  | > 93.4 | 0.146 | 
16 | COc1ccc(-c2nnc(N3CCN(C(=O)CN4CCN(c5ccccc5)CC4)CC3)nc2-c2ccc(OC)cc2)cc1 | > 100 | > 100 | > 100 | > 100 | > 100 | 35.3 | > 100 | > 100 | 47.6 | 3.19 | 3.13 | 11.1 | 3.39 | 6.03 | 2.99 | 2.85 |  |  | 3.52 | 2.29
17 | Cc1ccc(S(=O)OCc2c(C)c(C)c(COS(=O)c3ccc(C)cc3)c(C)c2C)cc1 (stereo unspecified) | > 100 | > 100 | > 100 | > 100 | > 100 | > 100 | > 100 | > 100 | > 100 |  |  |  |  |  |  |  |  |  |  | 
18 | Cn1cc(-c2csc(-c3c[nH]c4ccc(Br)cc34)n2)c2cnccc21 | 3.11 | 2.85 |  | 3.96 | 4.19 | 4.6 | 4.25 | 3.35 | 5.84 | 1.56 | 1.38 |  | 2.08 | 2.14 | 1.88 | 1.75 |  |  | 1.97 | 2.23
